Experimental data published in patent US7642283B2, “Mitochrondrial permeability transition pore affinity labels and modulators” (Hoffmann-La Roche Inc., priority 2003, dated 2010).

What was measured:
[1] = tested on: mitochondrial respiration; assay: Mitochondrial respiration (oxygen consumption); assay type: biochemical; conditions: at concentrations completely blocking MPTP
Method: Isolated liver mitochondria (˜0.5 mg protein ml^−1) were incubated in a batch mode in the presence of 20 nM [^3H]TPP ([^3H]Tetraphenylphosphonium ([^3H]TPP, 24-29 Ci/mmol) from Amersham Biosciences, Switzerland) for 15 min at 25° C. Aliquots (100 μl) of the mixture were then distributed into 96-well plates containing 100 μl of the test compound and the incubation prolonged for 15 min at 25° C. Samples were then filtered through 0.3% (v/v) polyethyleneimmine-treated GF/B glass fiber filters using a 96-channel cell harvester and the filters washed twice with 1 ml of buffer. Fifty μl of MICROSCINT 40 (Packard) were then added to each well, before counting for radioactivity in a TopCount scintillation counter (Packard). Non-specific uptake was determined in the presence of 1 mM unlabeled TPP or 1 μM carbonylcianide-p-trifluoromethoxyphenyl hydrazone (FCCP). Mitochondrial oxygen consumption was measured polarographically at 25° C. using a Clark-type electrode.
Compounds found to inhibit MPTP where then counter-screened using uptake of the potentiometric probe [^3H]-TPP (Hoek, J. B., Nicholls, D. G. & Williamson, J. R. (1980) J. Biol. Chem. 255, 1458-1564) for determining in a semi-quantitative, but rapid way whether they interfered with mitochondrial respiration (e.g. protonophores). […]

VDAC1 = molecular target: T1, VDAC1 (Rattus norvegicus, UniProt Q9Z2L0); assay: Affinity labeling of rat mitochondria with the tritiated spiro compound, SDS-PAGE and fluorography; assay type: binding; conditions: rat brain and liver mitochondria; 10 nM radiolabel; increasing concentration
T1 construct: from tissue; host or cells: Percoll-purified rat brain and liver mitochondria
Method: FIG. 6: Affinity-labeling of isolated rat brain (A) and liver (B) mitochondria. Mitochondrial preparations were incubated in the presence of 10 nM Spiro[cyclopentane-1,5′-[5H]dibenzo[a,d]cyclohepten]-2-one,10′,11′-t2-10′,11′-dihydro-3-methylene- for 15 min at 25° C. in presence or absence of various concentrations of Spiro[cyclopentane-1,5′-[5H]dibenzo[a,d]cyclohepten]-2-one,10′,11′-dihydro-3-methylene-(unlabeled). Samples were submitted to SDS-PAGE (see Experimental Procedures section for details) and fluorography. The fluorograms of the gels are shown. The molecular mass scale (kDa) is shown in the ordinate.
(§1) FIG. 8: (A) Effect of monobromobimano (MBBM) and phenylarsino oxide (PhAO) on VDAC1 labeling by Spiro[cyclopentane-1,5′-[5H]dibenzo[a,d]cyclohepten]-2-one,10′,11′-t2-10′,11′-dihydro-3-methylene- in rat brain mitochondria. Experimental conditions were as in the legend to FIG. 5. (B) Effect of various MPTP inhibitors, atractyloside (ATR) and DIDS on VDAC1 labeling by Spiro[cyclopentane-1,5′-[5H]dibenzo[a,d]cyclohepten]-2-one,10′,11′-t2-10′,11′-dihydro-3-methylene- in rat brain mitochondria. Mitochondria were exposed to DIDS for 5 min before rinsing for removal of the free agent and labeling with Spiro[cyclopentane-1,5′-[5H]dibenzo[a,d]cyclohepten]-2-one,10′,11′-t2-10′,11′-dihydro-3-methylene.
Percoll purified mitochondria (˜30 μg protein per sample) were incubated in the presence of 10 nM Spiro[cyclopentane-1,5′-[5H]dibenzo[a,d]cyclohepten]-2-one,10′,11′-t2-10′,11′-dihydro-3-methylene- in a final volume of 200 μl. After incubation for 15 min at 25° C., samples were centrifuged at 25000×g and the mitochondrial pellet rinsed twice with buffer. Samples were then solubilized in sample buffer containing β-mercaptoethanol (1 h at 37° C.) and subjected to SDS-polyacrylamide gel-electrophoresis (SDS-PAGE) on Tris-glycine Novex pre-cast mini-gels (12% monomer concentration, Invitrogen BV, The Netherlands). After Coomassie Blue staining, gels were processed for fluorography by soaking in Amplify™ (Amersham Biosciences), drying and exposing to X-ray BioMax MS film with BioMax MS intensifying screen (Kodak) at −80° C. for the appropriate time.
as §1, with “Effect” for “FIG. 8: (A) Effect”, “monobromobimano” for “monobromobimano (MBBM)”, “oxide” for “oxide (PhAO)”, “Example 12 (FIG. 8A).” for “the legend to FIG. 5. (B)”, “Spiro[cyclopentane-1,5′-[5H]dibenzo[a,d]cyclohepten]-2-one,10′,11′-t2-10′,11′-dihydro-3-methylene (FIG. 8B).” for “Spiro[cyclopentane-1,5′-[5H]dibenzo[a,d]cyclohepten]-2-one,10′,11′-t2-10′,11′-dihydro-3-methylene.”

T1 sequence (Q9Z2L0 whole entry): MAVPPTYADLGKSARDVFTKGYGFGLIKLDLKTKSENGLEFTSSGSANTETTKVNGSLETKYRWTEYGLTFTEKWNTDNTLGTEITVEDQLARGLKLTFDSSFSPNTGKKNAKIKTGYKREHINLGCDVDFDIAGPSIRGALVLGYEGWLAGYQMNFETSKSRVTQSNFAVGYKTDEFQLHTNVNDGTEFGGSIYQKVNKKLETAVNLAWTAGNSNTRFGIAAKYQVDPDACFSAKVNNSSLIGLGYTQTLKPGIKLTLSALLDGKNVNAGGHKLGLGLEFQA

- Effect of unlabeled compound on labeling of the ~32 kDa band (VDAC1): inhibited
SMILES: C=C1CCC2(C1=O)c1ccccc1CCc1ccccc12 [Spiro[cyclopentane-1,5′-[5H]dibenzo[a,d]cyclohepten]-2-one,10′,11′-dihydro-3-methylene-]
- Inhibition of mitochondrial respiration (basal, ADP-induced and uncoupled) [1]: did not inhibit
